# ChEMBL document CHEMBL6078643, “Palladium-Mediated Bioorthogonal System for Prodrug Activation of N-Benzylbenzamide-Containing Tubulin Polymerization Inhibitors for the Treatment of Solid Tumors” (J Med Chem, 2024)
# Calls of active or inactive are those of the source. The calls are words filed in the database; no cut-off is given here.
# Columns and labels:
# [1] = system: HepG2; test: Antiproliferative activity against human HepG2 cells assessed as reduction in cell viability incubated for 72 hrs by CCK-8 assay; format: functional, cell-based; details: HepG2, 72 h
# [2] = system: H22; test: Antiproliferative activity against mouse H22 cells assessed as reduction in cell viability incubated for 72 hrs by CCK-8 assay; format: functional, cell-based; details: H22, 72 h
# [3] = system: K562; test: Antiproliferative activity against human K562 cells assessed as reduction in cell viability incubated for 72 hrs by CCK-8 assay; format: functional, cell-based; details: K562, 72 h
# [4] = Antiproliferative activity against human THLE-2 cells assessed as reduction in cell viability incubated for 72 hrs by CCK-8 assay; format: toxicity, cell-based
# [5] = system: HepG2; test: Select factor, ratio of test compound IC50 to 5-fluoro-N-(3-hydroxy-4-methoxybenzyl)-2-morpholinobenzamide IC50 for antiproliferative activity against human HepG2 cells assessed as reduction in cell viability incubated for 72 hrs by CCK-8 assay; format: functional
# [6] = system: H22; test: Select factor, ratio of test compound IC50 to 5-fluoro-N-(3-hydroxy-4-methoxybenzyl)-2-morpholinobenzamide IC50 for antiproliferative activity against mouse H22 cells assessed as reduction in cell viability incubated for 72 hrs by CCK-8 assay; format: functional
# [7] = system: K562; test: Select factor, ratio of test compound IC50 to 5-fluoro-N-(3-hydroxy-4-methoxybenzyl)-2-morpholinobenzamide IC50 for antiproliferative activity against human K562 cells assessed as reduction in cell viability incubated for 72 hrs by CCK-8 assay; format: functional
# [8] = Prodrug release in PBS buffer assessed as half release time of 5-fluoro-N-(3-hydroxy-4-methoxybenzyl)-2-morpholinobenzamide in presence of palladium resins at 75 uM by HPLC analysis; format: ADME
# [9] = system: HepG2; test: Cytotoxicity against human HepG2 cell assessed as parent drug 5-fluoro-N-(3-hydroxy-4-methoxybenzyl)-2-morpholinobenzamide mediated decrease in cell viability at 100 nM in presence of palladium resins incubated for 72 hrs by CCK-8 assay; format: functional, cell-based
# [10] = target: T1, Tubulin (Homo sapiens) (UniProt P68371+Q9H4B7+P0DPH7+P68366+Q13509+Q71U36+P04350+Q3ZCM7+P07437+P68363+Q9BQE3+Q6PEY2+Q13885+Q9BVA1+Q9BUF5); test: Disruption of microtubule organization in human K562 cells at 80 nM incubated for 72 hrs in presence of palladium resins by DAPI staining based confocal microscopic analysis; format: cell-based
# [11] = system: K562; test: Induction of cell cycle arrest in human K562 cells assessed as accumulation of cells at G1 phase at 80 nM incubated for 72 hrs in presence of palladium resins by PI staining based flow cytometric analysis ( Rvb = 77.46 %); format: functional
# [12] = system: K562; test: Induction of cell cycle arrest in human K562 cells assessed as accumulation of cells at G2 phase at 80 nM incubated for 72 hrs in presence of palladium resins by PI staining based flow cytometric analysis ( Rvb = 8.5 %); format: functional
# [13] = system: K562; test: Induction of cell cycle arrest in human K562 cells assessed as accumulation of cells at G1 phase at 80 nM incubated for 72 hrs by PI staining based flow cytometric analysis ( Rvb = 77.46 %); format: functional
# [14] = system: K562; test: Induction of cell cycle arrest in human K562 cells assessed as accumulation of cells at G2/M phase at 80 nM incubated for 72 hrs in presence of palladium resins by PI staining based flow cytometric analysis ( Rvb = 8.5 %); format: functional
# [15] = system: K562; test: Induction of apoptosis in human K562 cells assessed as nucleus fragmentation at 80 nM incubated for 72 hrs in presence of palladium resins by Hoechst 33342 staining based fluorescent microscopic analysis; format: functional, cell-based
# [16] = system: K562; test: Induction of apoptosis in human K562 cells assessed as early apoptotic cells at 80 nM incubated for 72 hrs by Annexin V-APC staining based flow cytometric analysis (reference value: 2.78%); format: functional
# [17] = system: K562; test: Induction of apoptosis in human K562 cells assessed as late apoptotic cells at 80 nM incubated for 72 hrs in presence of palladium resins by Annexin V-APC staining based flow cytometric analysis (reference value: 1.36%); format: functional
# [18] = system: K562; test: Antiproliferative activity against human K562 cells at 100 nM incubated for 72 hrs in presence of palladium resins by CCK-8 assay; format: functional, cell-based
# [19] = system: HepG2; test: Antiproliferative activity against human HepG2 cells at 100 nM incubated for 72 hrs in presence of palladium resins by CCK-8 assay; format: functional, cell-based
# [20] = system: HUVEC; test: Antivascular activity against HUVEC cells assessed as inhibition of cell migration at 80 nM incubated for 24 hrs in presence of palladium resins by phase contrast microscopic analysis; format: functional, cell-based; details: Homo sapiens
# [21] = system: HUVEC; test: Antivascular activity against HUVEC cells assessed as inhibition of capillary tube formation at 80 nM incubated for 6 hrs in presence of palladium resins by inverted microscopic analysis; format: functional, cell-based; details: Homo sapiens
# [22] = target: T1, Tubulin (Homo sapiens); test: Inhibition of tubulin polymerization in human HepG2 cells assessed as decrease in beta tubulin expression at 80 nM incubated for 24 hrs in presence of palladium resins by Western blotting analysis; format: cell-based
# [23] = target: T1, Tubulin (Homo sapiens); test: Inhibition of tubulin polymerization in human K562 cells assessed as decrease in beta tubulin expression at 80 nM incubated for 24 hrs in presence of palladium resins by Western blotting analysis; format: cell-based
# [24] = target: T1, Tubulin (Homo sapiens); test: Inhibition of tubulin polymerization in human K562 cells assessed as decrease in polymerized alpha tubulin level at 80 nM incubated for 24 hrs in presence of palladium resins by Western blotting analysis; format: cell-based
# [25] = target: Bcr/Abl fusion protein (Homo sapiens) (UniProt P00519+P11274); test: Inhibition of Bcr-Abl in human K562 cells at 80 nM incubated for 24 hrs in presence of palladium resins by Western blotting analysis; format: cell-based
# Chain of Bcr/Abl fusion protein (Homo sapiens) (P00519 whole entry, looked up, the tested form may be a part): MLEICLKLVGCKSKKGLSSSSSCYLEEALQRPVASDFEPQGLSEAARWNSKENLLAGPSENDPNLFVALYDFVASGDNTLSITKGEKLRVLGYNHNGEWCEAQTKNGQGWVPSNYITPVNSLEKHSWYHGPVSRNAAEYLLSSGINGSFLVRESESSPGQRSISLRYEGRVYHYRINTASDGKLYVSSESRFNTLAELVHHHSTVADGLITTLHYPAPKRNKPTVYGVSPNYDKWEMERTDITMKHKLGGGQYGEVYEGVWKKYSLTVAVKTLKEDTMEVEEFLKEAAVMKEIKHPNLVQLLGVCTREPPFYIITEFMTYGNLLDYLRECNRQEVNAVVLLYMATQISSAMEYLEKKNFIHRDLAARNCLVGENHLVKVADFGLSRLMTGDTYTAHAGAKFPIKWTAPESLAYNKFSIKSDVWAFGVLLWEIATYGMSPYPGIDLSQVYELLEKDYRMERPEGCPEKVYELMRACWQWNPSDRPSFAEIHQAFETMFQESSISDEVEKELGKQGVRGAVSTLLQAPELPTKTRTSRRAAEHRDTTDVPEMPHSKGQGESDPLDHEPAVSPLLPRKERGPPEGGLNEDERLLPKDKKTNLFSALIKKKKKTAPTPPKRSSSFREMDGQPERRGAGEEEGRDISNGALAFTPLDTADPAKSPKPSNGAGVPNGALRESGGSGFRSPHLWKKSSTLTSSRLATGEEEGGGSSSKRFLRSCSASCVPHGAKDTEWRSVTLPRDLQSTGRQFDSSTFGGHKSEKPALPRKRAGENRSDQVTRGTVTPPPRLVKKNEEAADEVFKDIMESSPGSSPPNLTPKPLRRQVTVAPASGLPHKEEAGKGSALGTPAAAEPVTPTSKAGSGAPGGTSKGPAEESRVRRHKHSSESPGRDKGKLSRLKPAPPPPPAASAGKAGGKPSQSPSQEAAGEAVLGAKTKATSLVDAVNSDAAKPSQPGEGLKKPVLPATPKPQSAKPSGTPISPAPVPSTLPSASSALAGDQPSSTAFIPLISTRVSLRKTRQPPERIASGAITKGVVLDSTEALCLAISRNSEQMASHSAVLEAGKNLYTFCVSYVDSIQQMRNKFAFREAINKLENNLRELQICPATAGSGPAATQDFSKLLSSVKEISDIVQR
# Chain of Bcr/Abl fusion protein (Homo sapiens) (P11274 whole entry, looked up, the tested form may be a part): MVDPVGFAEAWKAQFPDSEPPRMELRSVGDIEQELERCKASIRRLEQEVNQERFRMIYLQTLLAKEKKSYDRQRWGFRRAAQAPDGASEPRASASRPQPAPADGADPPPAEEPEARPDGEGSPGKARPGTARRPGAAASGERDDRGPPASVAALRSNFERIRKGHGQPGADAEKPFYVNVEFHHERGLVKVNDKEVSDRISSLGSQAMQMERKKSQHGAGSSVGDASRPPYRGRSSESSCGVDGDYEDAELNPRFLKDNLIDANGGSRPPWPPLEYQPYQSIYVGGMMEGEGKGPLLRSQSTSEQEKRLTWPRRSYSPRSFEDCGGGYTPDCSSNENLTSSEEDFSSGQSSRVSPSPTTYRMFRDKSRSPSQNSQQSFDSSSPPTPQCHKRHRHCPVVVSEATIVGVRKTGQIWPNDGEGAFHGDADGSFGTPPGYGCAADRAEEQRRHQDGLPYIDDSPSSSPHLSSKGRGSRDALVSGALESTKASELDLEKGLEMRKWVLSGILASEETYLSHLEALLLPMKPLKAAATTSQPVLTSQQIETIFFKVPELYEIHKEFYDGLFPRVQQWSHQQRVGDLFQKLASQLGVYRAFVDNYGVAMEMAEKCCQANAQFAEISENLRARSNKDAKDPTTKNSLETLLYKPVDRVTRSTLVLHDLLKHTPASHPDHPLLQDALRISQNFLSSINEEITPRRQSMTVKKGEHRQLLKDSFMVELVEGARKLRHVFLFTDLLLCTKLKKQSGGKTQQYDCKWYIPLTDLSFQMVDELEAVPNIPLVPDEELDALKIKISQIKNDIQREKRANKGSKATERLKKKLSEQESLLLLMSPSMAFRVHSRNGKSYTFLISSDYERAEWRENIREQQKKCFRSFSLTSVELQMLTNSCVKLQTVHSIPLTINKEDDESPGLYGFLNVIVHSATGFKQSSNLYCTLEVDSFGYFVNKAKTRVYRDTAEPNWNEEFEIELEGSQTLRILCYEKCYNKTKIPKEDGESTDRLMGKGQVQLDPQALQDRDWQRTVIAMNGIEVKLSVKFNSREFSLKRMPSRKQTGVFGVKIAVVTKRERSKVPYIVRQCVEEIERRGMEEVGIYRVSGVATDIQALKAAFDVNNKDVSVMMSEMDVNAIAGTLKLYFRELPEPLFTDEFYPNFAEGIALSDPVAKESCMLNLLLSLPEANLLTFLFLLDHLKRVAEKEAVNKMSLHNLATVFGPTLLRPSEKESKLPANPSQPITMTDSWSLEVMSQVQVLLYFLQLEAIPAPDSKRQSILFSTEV
# [26] = system: HepG2; test: Antitumor activity against human HepG2 cells xenografted in Balb/c mouse assessed as tumor growth inhibition at 20 mg/kg, iv administered daily in presence of palladium resins for 14 days relative to control; format: functional; details: HepG2, 336 h, time 14 day
# [27] = Toxicity in Balb/c mouse xenografted with human HepG2 cells assessed as change in body weight at 20 mg/kg, iv administered daily in presence of palladium resins for 14 days and measured every 2 days; format: organism-based; details: in vivo, 336 h, time 14 day
# [28] = Toxicity in Balb/c mouse xenografted with human HepG2 cells assessed as effect on heart at 20 mg/kg, iv administered daily in presence of palladium resins for 14 days by H and E staining based analysis; format: organism-based; details: in vivo, 336 h, time 14 day
# [29] = Toxicity in Balb/c mouse xenografted with human HepG2 cells assessed as effect on liver at 20 mg/kg, iv administered daily in presence of palladium resins for 14 days by H and E staining based analysis; format: organism-based; details: in vivo, 336 h, time 14 day
compound,measurement,setting,value
C#CCOc1cc(CNC(=O)c2cc(F)ccc2N2CCOCC2)ccc1OC,IC50,[1],1310 nM
same,IC50,[2],805 nM
same,IC50,[3],1100 nM
same,IC50 at 72 h,[4],1420 nM
same,Ratio IC50,[5],68.3
same,Ratio IC50,[6],39.6
same,Ratio IC50,[7],69.1
same,t1/2,[8],7.2 h
same,Activity,[9],Active
same,Activity,[10],Active
same,Activity,[11],58.6%
same,Activity,[12],12.3%
same,Activity,[13],67.39%
same,Activity,[14],12.3%
same,Activity,[15],Active
same,Activity,[16],4.26%
same,Activity,[17],27.82%
same,Activity,[18],Active
same,Activity,[19],Active
same,Activity,[20],Active
same,Activity,[21],Active
same,inhibition,[22],Active
same,inhibition,[23],Active
same,inhibition,[24],Active
same,inhibition,[25],Active
same,inhibition in vivo at 20 mg/kg,[26],63.2%
same,Activity,[27],Non-toxic
same,Activity,[28],Non-toxic
same,Activity,[29],Non-toxic
